Reference: EP4722203A1, “3,4-DIHYDROPHTHALAZIN-1(2H)-ONE DERIVATIVE, AND PREPARATION METHOD THEREFOR AND USE THEREOF” (Academy of Military Medical Sciences, priority 2023, dated 2024)

How the values were obtained:
MV-4-11 cells = experiment: Antiproliferative activity, CCK-8 assay; type: cell-based; conditions: Homo sapiens, MV4-11; 144 hours incubation, CCK-8, absorbance at 450 nm
Description: (§1) The cell models used in this example were human hematologic tumor cells, including NCI-H929, RPMI-8226, MV-4-11, U937 and WSU-DLCL-2. Some of the compounds of the present invention were selected to determine their inhibitory activity against the proliferation of NCI-H929, RPMI-8226, MV-4-11, U937, and WSU-DLCL-2 cells.
(§2) • ① The selected compounds were dissolved in DMSO to prepare 10 mM stock solutions. Compounds used within three months should be stored at room temperature in a desiccator; others could be stored at -20°C for long-term storage. • ② The above stock solutions and the positive reference compound pomalidomide were diluted with DMSO. Their initial concentrations were 10 µM. In the experiments of NCI-H929 and RPMI-8226 cells, 3-fold serial dilution with 11 concentration points was performed, with the lowest concentration of 0.00047 µM. The resulting solutions were shaken on a shaker for 5 minutes.
(§3) • ① The NCI-H929, RPMI-8226, MV-4-11, U937, and WSU-DLCL-2 cells in logarithmic growth phase were inoculated in a 96-well plate, 20,000 to 30,000 cells per well, and the plate was pre-cultured for 24 hours in an incubator (at 37°C and 5% CO2). • ② The culture medium in the plate was replaced, and the compounds and the positive control with corresponding concentrations were added to the plated at a volume of 50 µl. • ③ The plate was incubated for 144 hours in an incubator, then 15 µl of CCK-8 solution was added to each well, and incubated in the incubator for another 1-4 hours. • ④ The absorbance at 450 nm was measured using a microplate reader.
(§4) • ① Calculating % Inhibition: [formula] • ② Calculating IC50 value of compound and plotting dose-response curve: The IC50 value was calculated by fitting the % Inhibition and the logarithm of compound concentration to a nonlinear regression (dose response-variable slope) by using GraphPad 6.0. • Y = Bottom + (Top - Bottom) / (1 + 10^((LogIC50 - X) * HillSlope)) • X: log of inhibitor concentration; Y: % Inhibition.
(§5) After calculating % Inhibition, a dose-response curve was plotted with the logarithm of the test compound concentration as the x-axis and the average cell viability as the y-axis, and the IC50 value was obtained by fitting.

NCI-H929 cells = experiment: Antiproliferative activity, CCK-8 assay; type: cell-based; conditions: Homo sapiens, 144 hours incubation, CCK-8, absorbance at 450 nm, read-out: IC50 (µM) H-929
Description: as §1, §2, §3, §4, §5

U937 cells = experiment: Antiproliferative activity, CCK-8 assay; type: cell-based; conditions: Homo sapiens, U-937; 144 hours incubation, CCK-8, absorbance at 450 nm
Description: as §1, §2, §3, §4, §5

WSU-DLCL-2 cells = experiment: Antiproliferative activity, CCK-8 assay; type: cell-based; conditions: Homo sapiens, WSUDLCL2; 144 hours incubation, CCK-8, absorbance at 450 nm
Description: as §1, §2, §3, §4, §5

[1] = tested on: human multiple myeloma RPMI-8226 xenograft tumors; experiment: In vivo activity against RPMI-8226 transplanted tumor; design: species or system NOD/SCID mice; conditions: 10 mg/kg, QD; for Tumor inhibition rate TGI (%) / Volume (mm^3), 0 days / Volume (mm^3), 12 days: oral gavage; for Tumor inhibition rate TGI (%): 12 consecutive days; for Volume (mm^3), 0 days: tumor volume at 0 days (baseline); for Volume (mm^3), 12 days: tumor volume at 12 days
Description: In this example, human multiple myeloma RPMI-8226 cell line was used as the cell model. The inhibitory effects of compounds on the growth of NOD/SCID mouse transplanted tumors of RPMI-8226 tumor cells were determined. The evaluation methods and results are described below.
Human multiple myeloma RPMI-8226 cells were routinely cultured in RPMI1640 containing 10% fetal bovine serum at 37°C in a 5% CO2 incubator. After three passages in vitro, when the cells reached over 80% confluence and the required confluence rate, the cells were digested and harvested. After washing with PBS, the cells were counted and the cell concentration was adjusted to approximately 5 × 10^7 cells/mL. The cells were then placed in 4 mL centrifuge tubes on ice for later use.
Female NOD/SCID mice aged 4-5 weeks were selected and subcutaneously inoculated with RPMI-8226 cells ectopically. The mice were held in a lateral position, the forelimb axilla was disinfected with 75% alcohol, and 100 µL of the cell suspension was injected subcutaneously into the axilla using a 1 mL syringe ([…]/100 µL).
Once the tumors grew to 90-150 mm^3, the animals were randomly grouped, 8 mice per group, and administered according to different administration methods as follows: • Model control group: administered with the same volume of Vehicle (DMSO: 0.5% sodium carboxymethyl cellulose: distilled water = 1:1:8) daily by gavage; • Test groups: administered with compound I-4 and compound I-8 solutions at 10 mg/kg (mouse body weight) daily by gavage, respectively; • Positive control group: administered with pomalidomide solution at 10 mg/kg (mouse body weight) daily by gavage.
The route of administration was oral gavage, and the administration frequency was once daily, for 12 consecutive days. The first day of administration was defined as Day 1 of the experiment. Tumor volume changes in mice were measured and recorded every two days. Tumor volume was measured using a vernier caliper, in which the major axis (a) and minor axis (b) of the tumor were measured, and the tumor volume was calculated as: tumor volume V (mm^3) = a x b^2/2. After the experiment, the mice were dissected and the tumor weight was measured. The data were entered and statistically analyzed using GraphPad Prism 6 software. The data are expressed as mean ± SEM (Standard Error of Mean), and one-way ANOVA was used. P ≤ 0.05 was considered statistically significant.

IC50 (MV-4-11 cells)	IC50 (NCI-H929 cells)	IC50 (U937 cells)	Structure (SMILES)	IC50 (WSU-DLCL-2 cells)	growth of RPMI-8226 transplanted tumors (in words) [1]	Tumor inhibition rate TGI (%) [1]	Volume (mm^3), 0 days [1]	Volume (mm^3), 12 days [1]
0.0058 µM	0.0039 µM	0.0088 µM	CN1Cc2c(NCc3ccc(CN4CCN(c5ccc(C#N)c(F)c5)CC4)cc3)cccc2C(=O)N1C1CCC(=O)NC1=O (centres unmarked) [I-8]	0.017 µM	significantly inhibit the growth	80.13%	257.5 mm^3	520.3 mm^3
0.183 µM	0.116 µM	0.31 µM	CN1Cc2c(N)cccc2C(=O)N1C1CCC(=O)NC1=O (centres unmarked) [I-4, 3-(5-amino-3-methyl-1-oxo-3,4-dihydrophthalazin-2(1H)-yl)piperidin-2,6-dione]	1.21 µM	significantly inhibit the growth	73.38%	189.0 mm^3	541.1 mm^3
> 10 µM	3.91 µM	2.53 µM	Nc1cccc2c1C(=O)N(C1CCC(=O)NC1=O)C2=O (centres unmarked) [Pomalidomide, reference compound]	> 10 µM	–	47.80%	180.0 mm^3	870.4 mm^3
